# Laboratory results: ChEMBL document CHEMBL4507303, “Data for DCP probe TP-004” (2021)
# How the values were obtained:
# [1] = molecular target: Ephrin type-B receptor 6 (Homo sapiens) (UniProt O15197); conditions: Compound concentration 1000.0 nM
# [2] = test system: Phosphatidylinositol 4,5-bisphosphate 3-kinase catalytic subunit alpha isoform (Homo sapiens), P42336 [M1043I]; conditions: Compound concentration 1000.0 nM
# [3] = molecular target: Serine/threonine-protein kinase haspin (Homo sapiens) (UniProt Q8TF76); conditions: Compound concentration 1000.0 nM
# [4] = molecular target: Phosphatidylinositol 3-kinase catalytic subunit type 3 (Homo sapiens) (UniProt Q8NEB9); conditions: Compound concentration 1000.0 nM
# [5] = molecular target: Mitogen-activated protein kinase kinase kinase 9 (Homo sapiens) (UniProt P80192); conditions: Compound concentration 1000.0 nM
# [6] = molecular target: Cyclin-dependent kinase-like 1 (Homo sapiens) (UniProt Q00532); conditions: Compound concentration 1000.0 nM
# [7] = molecular target: RAC-beta serine/threonine-protein kinase (Homo sapiens) (UniProt P31751); conditions: Compound concentration 1000.0 nM
# [8] = molecular target: Receptor-interacting serine/threonine-protein kinase 1 (Homo sapiens) (UniProt Q13546); conditions: Compound concentration 1000.0 nM
# [9] = molecular target: Sigma non-opioid intracellular receptor 1 (Homo sapiens) (UniProt Q99720); conditions: Compound concentration 10.0 uM
# [10] = molecular target: Protein-tyrosine kinase 6 (Homo sapiens) (UniProt Q13882); conditions: Compound concentration 1000.0 nM
# [11] = molecular target: Tyrosine-protein kinase SYK (Homo sapiens) (UniProt P43405); conditions: Compound concentration 1000.0 nM
# [12] = molecular target: Mitogen-activated protein kinase kinase kinase 13 (Homo sapiens) (UniProt O43283); conditions: Compound concentration 1000.0 nM
# [13] = molecular target: Cyclin-dependent kinase 4 (Homo sapiens) (UniProt P11802); conditions: Compound concentration 1000.0 nM
# [14] = molecular target: RAC-alpha serine/threonine-protein kinase (Homo sapiens) (UniProt P31749); conditions: Compound concentration 1000.0 nM
# [15] = molecular target: Dual specificity mitogen-activated protein kinase kinase 6 (Homo sapiens) (UniProt P52564); conditions: Compound concentration 1000.0 nM
# [16] = molecular target: Receptor-interacting serine/threonine-protein kinase 4 (Homo sapiens) (UniProt P57078); conditions: Compound concentration 1000.0 nM
# [17] = molecular target: Serine/threonine-protein kinase WNK4 (Homo sapiens) (UniProt Q96J92); conditions: Compound concentration 1000.0 nM
# [18] = molecular target: Activin receptor type-2A (Homo sapiens) (UniProt P27037); conditions: Compound concentration 1000.0 nM
# [19] = molecular target: Dual specificity mitogen-activated protein kinase kinase 3 (Homo sapiens) (UniProt P46734); conditions: Compound concentration 1000.0 nM
# Chain of Cyclin-dependent kinase 4 (Homo sapiens) (P11802 whole entry): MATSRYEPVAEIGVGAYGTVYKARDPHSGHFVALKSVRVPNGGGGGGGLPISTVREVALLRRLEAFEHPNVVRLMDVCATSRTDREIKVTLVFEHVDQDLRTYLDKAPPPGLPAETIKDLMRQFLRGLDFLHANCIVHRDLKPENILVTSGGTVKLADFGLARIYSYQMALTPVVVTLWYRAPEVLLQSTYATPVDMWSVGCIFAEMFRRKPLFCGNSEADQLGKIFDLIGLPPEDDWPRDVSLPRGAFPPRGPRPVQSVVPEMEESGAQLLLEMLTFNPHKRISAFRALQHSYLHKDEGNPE
# Chain of Activin receptor type-2A (Homo sapiens) (P27037 whole entry): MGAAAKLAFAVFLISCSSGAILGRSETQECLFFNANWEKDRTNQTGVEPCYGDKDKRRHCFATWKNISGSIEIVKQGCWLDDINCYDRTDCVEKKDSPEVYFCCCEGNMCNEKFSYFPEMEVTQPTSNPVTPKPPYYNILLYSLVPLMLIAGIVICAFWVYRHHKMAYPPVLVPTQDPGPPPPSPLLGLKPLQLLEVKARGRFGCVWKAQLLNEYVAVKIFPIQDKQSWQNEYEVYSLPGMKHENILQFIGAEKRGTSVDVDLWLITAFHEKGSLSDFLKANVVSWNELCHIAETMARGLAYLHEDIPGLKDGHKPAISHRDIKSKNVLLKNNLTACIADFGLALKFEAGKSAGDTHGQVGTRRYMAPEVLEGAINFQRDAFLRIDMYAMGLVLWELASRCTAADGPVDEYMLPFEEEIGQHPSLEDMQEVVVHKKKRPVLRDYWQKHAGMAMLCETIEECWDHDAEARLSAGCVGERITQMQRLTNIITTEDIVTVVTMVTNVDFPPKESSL
# Chain of Protein-tyrosine kinase 6 (Homo sapiens) (Q13882 whole entry, looked up): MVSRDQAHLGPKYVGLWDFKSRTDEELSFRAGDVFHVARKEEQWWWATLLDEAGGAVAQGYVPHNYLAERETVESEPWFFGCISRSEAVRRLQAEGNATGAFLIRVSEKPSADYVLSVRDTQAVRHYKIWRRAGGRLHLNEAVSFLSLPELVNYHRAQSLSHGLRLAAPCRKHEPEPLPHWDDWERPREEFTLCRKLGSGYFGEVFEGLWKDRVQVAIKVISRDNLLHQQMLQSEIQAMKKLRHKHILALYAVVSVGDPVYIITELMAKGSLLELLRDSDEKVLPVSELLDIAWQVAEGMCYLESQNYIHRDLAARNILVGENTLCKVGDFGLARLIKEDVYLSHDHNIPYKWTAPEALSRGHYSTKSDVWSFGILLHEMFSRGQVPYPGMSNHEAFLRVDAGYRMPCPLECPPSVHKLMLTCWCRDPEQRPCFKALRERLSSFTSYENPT
# Chain of Serine/threonine-protein kinase WNK4 (Homo sapiens) (Q96J92 whole entry): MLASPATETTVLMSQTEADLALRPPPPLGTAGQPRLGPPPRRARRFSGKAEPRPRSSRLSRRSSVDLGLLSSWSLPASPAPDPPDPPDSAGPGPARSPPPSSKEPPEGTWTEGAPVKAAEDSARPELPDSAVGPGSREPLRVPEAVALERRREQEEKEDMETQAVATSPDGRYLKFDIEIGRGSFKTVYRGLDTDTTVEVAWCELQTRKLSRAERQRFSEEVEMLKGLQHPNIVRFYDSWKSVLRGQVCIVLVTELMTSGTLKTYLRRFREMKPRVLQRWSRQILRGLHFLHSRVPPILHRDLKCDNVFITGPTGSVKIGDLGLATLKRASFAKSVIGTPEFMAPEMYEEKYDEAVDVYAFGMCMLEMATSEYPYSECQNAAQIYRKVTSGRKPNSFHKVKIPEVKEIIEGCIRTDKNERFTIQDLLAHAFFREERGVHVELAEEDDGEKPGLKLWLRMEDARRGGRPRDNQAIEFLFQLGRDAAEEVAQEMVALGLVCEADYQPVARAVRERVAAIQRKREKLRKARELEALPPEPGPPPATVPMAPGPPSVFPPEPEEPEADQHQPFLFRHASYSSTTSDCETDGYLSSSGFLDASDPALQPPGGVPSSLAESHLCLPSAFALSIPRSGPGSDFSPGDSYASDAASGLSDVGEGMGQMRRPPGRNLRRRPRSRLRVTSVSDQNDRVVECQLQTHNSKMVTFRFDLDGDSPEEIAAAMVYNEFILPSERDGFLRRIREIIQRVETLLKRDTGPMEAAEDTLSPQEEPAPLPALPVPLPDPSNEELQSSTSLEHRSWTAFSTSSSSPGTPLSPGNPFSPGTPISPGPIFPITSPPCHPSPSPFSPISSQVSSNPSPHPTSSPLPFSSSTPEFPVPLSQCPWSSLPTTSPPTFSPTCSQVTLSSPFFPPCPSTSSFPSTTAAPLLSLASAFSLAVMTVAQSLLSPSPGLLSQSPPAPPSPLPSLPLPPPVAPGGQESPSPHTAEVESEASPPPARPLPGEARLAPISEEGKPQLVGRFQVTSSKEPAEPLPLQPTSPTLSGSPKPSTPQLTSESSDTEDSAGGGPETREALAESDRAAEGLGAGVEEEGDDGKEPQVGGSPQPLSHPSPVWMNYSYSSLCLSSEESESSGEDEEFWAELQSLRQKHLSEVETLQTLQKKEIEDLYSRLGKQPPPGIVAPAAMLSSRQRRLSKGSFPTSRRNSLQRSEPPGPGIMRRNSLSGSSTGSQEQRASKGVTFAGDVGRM
# Chain of Phosphatidylinositol 3-kinase catalytic subunit type 3 (Homo sapiens) (Q8NEB9 whole entry): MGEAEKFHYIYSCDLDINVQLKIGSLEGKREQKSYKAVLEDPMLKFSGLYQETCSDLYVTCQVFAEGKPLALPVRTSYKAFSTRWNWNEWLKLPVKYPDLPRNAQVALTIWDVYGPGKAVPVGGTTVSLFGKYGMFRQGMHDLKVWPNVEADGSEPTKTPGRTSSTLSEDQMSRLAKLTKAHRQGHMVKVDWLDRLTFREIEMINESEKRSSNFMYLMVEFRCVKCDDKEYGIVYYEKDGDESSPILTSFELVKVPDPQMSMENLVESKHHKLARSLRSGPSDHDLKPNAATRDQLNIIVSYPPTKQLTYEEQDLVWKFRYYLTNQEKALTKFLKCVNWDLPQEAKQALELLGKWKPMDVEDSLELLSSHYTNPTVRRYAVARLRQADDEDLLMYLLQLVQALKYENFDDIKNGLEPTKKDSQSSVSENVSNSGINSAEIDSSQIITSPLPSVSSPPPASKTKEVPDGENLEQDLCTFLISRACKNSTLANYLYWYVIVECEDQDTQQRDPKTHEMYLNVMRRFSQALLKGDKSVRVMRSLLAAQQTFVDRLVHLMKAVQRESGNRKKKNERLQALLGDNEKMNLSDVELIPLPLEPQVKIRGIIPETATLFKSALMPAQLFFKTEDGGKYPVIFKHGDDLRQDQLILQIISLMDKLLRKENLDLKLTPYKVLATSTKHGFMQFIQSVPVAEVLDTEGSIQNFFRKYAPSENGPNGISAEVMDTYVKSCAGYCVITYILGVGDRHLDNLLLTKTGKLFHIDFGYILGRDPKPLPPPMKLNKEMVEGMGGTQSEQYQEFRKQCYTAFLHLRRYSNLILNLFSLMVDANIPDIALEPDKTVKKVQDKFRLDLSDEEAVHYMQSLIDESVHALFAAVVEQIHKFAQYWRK
# Chain of RAC-alpha serine/threonine-protein kinase (Homo sapiens) (P31749 whole entry): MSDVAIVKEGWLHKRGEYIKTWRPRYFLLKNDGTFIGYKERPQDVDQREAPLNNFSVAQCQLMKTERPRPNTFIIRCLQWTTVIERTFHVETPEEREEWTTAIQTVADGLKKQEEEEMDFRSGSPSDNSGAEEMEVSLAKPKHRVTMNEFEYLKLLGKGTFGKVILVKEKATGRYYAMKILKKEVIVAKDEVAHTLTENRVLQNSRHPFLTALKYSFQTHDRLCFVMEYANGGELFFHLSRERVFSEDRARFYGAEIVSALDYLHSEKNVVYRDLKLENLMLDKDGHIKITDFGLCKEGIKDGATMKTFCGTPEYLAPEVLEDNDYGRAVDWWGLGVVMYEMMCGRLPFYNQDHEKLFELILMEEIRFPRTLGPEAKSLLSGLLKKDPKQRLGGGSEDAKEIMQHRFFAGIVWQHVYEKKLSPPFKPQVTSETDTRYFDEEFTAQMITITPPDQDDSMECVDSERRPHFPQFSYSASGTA
# Chain of Receptor-interacting serine/threonine-protein kinase 4 (Homo sapiens) (P57078 whole entry): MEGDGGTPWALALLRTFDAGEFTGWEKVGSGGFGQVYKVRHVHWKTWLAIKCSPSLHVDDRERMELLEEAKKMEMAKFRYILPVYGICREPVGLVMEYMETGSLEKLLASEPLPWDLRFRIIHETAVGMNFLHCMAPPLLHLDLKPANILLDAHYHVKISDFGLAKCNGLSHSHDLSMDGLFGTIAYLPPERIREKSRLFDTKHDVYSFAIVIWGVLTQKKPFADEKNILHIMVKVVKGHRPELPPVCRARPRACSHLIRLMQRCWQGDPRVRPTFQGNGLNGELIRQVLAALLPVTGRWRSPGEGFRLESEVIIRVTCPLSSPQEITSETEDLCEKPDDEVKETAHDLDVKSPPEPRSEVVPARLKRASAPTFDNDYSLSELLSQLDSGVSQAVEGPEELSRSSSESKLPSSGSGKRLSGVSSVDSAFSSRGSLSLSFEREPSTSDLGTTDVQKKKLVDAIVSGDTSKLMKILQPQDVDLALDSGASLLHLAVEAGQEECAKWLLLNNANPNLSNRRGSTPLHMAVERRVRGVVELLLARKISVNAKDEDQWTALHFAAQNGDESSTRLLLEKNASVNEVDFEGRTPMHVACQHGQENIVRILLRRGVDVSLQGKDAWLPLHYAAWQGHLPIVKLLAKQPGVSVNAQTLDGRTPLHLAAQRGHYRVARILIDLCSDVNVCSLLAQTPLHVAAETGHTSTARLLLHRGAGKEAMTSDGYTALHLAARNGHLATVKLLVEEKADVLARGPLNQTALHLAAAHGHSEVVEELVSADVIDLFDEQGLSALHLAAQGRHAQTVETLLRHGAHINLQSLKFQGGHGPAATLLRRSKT
# Chain of Dual specificity mitogen-activated protein kinase kinase 6 (Homo sapiens) (P52564 whole entry): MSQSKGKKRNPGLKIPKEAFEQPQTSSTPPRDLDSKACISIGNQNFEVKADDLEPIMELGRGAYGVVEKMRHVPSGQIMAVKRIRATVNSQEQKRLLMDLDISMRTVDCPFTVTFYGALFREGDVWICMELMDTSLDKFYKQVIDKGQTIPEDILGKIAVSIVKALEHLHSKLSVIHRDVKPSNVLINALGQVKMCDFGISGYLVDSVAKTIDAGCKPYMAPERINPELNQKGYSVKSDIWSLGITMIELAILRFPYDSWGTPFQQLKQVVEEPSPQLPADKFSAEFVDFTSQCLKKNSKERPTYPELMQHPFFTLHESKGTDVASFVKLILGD
structure (smiles),measurement,setting,value
Cc1nc(N2CC[C@@H](O)C2)ncc1-c1cc(C(F)(F)F)cc2[nH]ncc12 [TP-004],residual activity,[1],36%
same,residual activity,[2],100%
same,residual activity,[3],66%
same,residual activity,[4],63%
same,residual activity,[5],100%
same,residual activity,[6],77%
same,residual activity,[7],87%
same,residual activity,[8],100%
same,inhibition,[9],45.5%
same,residual activity,[10],89%
same,residual activity,[11],100%
same,residual activity,[12],56%
same,residual activity,[13],63%
same,residual activity,[14],100%
same,residual activity,[15],100%
same,residual activity,[16],60%
same,residual activity,[17],95%
same,residual activity,[18],73%
same,residual activity,[19],90%
